Results from patent US20250324971A1, “HERBICIDAL DERIVATIVES” (SYNGENTA CROP PROTECTION AG, priority 2022, published 2025).

What was measured:
Type in all cases: in vivo
[1] = test system: Amaranthus palmeri (AMAPA); experiment: Post-Emergence Test (herbicidal, glasshouse pots); details: evaluated after 13 days
Description: (§1) Seeds of a variety of test species are sown in standard soil in pots (Setaria faberi (SETFA), Ipomoea hederacea (IPOHE), Echinochloa crus-galli (ECHCG), (Amaranthus retoflexus (AMARE), Zea mays (ZEAMX), and Amaranthus palmeri (AMAPA)). After 8 days cultivation under controlled conditions in a glasshouse (at 24° C./16° C., day/night; 14 hours light; 65% humidity), the plants arm sprayed with an aqueous spray solution derived from the formulation of the technical active ingredient in acetone/water (50:50) solution containing 0.5% Tween 20 (polyoxyethylene sorbitan monolaurate, CAS RN 9005-84-5). Rate of application is shown in g/ha in the tables below. The test plants are then grown in a glasshouse under controlled conditions in a glasshouse (at 24° C./16° C., day/night; 14 hours light; 65% humidity) and watered twice daily. After 13 days the test is evaluated for the percentage damage caused to the plant. The biological activities are shown in the following table on a five-point scale (5=81-100%; 4=61-80%; 3=41-60%; 2=21-40%; 1=0-20%; -=not tested).

[2] = test system: Amaranthus retoflexus (AMARE); experiment: Post-Emergence Test (herbicidal, glasshouse pots); details: evaluated after 13 days
Description: as §1

[3] = test system: Echinochloa crus-galli (ECHCG); experiment: Post-Emergence Test (herbicidal, glasshouse pots); details: evaluated after 13 days
Description: as §1

[4] = test system: Ipomoea hederacea (IPOHE); experiment: Post-Emergence Test (herbicidal, glasshouse pots); details: evaluated after 13 days
Description: as §1

Zea mays (ZEAMX) [5] = experiment: Post-Emergence Test (herbicidal, glasshouse pots); details: evaluated after 13 days
Description: as §1

[6] = test system: Ipomoea hederacea (IPOHE); experiment: Pre-Emergence Test (herbicidal, glasshouse pots); details: rate 1000 g/ha, evaluated after 13 days, five-point scale
[7] = test system: Echinochloa crus-galli (ECHCG); experiment: Pre-Emergence Test (herbicidal, glasshouse pots); details: rate 1000 g/ha, evaluated after 13 days, five-point scale
[8] = test system: Amaranthus retoflexus (AMARE); experiment: Pre-Emergence Test (herbicidal, glasshouse pots); details: rate 1000 g/ha, evaluated after 13 days, five-point scale
Zea mays (ZEAMX) [9] = experiment: Pre-Emergence Test (herbicidal, glasshouse pots); details: rate 1000 g/ha, evaluated after 13 days, five-point scale
[10] = test system: Amaranthus palmeri (AMAPA); experiment: Pre-Emergence Test (herbicidal, glasshouse pots); details: rate 1000 g/ha, evaluated after 13 days, five-point scale

SMILES	Post-Emergence Test AMAPA percentage damage (five-point scale) ([1]; rate 1000 g/ha)	Post-Emergence Test AMARE percentage damage (five-point scale) ([2]; rate 1000 g/ha)	Post-Emergence Test ECHCG percentage damage (five-point scale) ([3]; rate 1000 g/ha)	Post-Emergence Test IPHOE percentage damage (five-point scale) ([4]; rate 1000 g/ha)	Post-Emergence Test ZEAMX percentage damage (five-point scale) (Zea mays (ZEAMX) [5]; rate 1000 g/ha)	percentage damage caused to the plant, IPHOE [6]	percentage damage caused to the plant, ECHCG [7]	percentage damage caused to the plant, AMARE [8]	percentage damage caused to the plant, ZEAMX (Zea mays (ZEAMX) [9])	percentage damage caused to the plant, AMAPA [10]	Post-Emergence Test AMAPA percentage damage (five-point scale) ([1]; rate 250 g/ha)	Post-Emergence Test AMARE percentage damage (five-point scale) ([2]; rate 250 g/ha)	Post-Emergence Test ECHCG percentage damage (five-point scale) ([3]; rate 250 g/ha)	Post-Emergence Test IPHOE percentage damage (five-point scale) ([4]; rate 250 g/ha)	Post-Emergence Test ZEAMX percentage damage (five-point scale) (Zea mays (ZEAMX) [5]; rate 250 g/ha)
CCn1c(Nc2cccc(Cl)n2)cc(=O)c(C(=O)O)c1-c1ccc(Cl)c(Cl)c1 [Compound 30, 6-[(6-chloro-2-pyridyl)amino]-2-(3,4-dichlorophenyl)-1-ethyl-4-oxo-pyridine-3-carboxylic acid]	2 (2=21-40%)	2 (2=21-40%)	0	2 (2=21-40%)	1 (1=0-20%)	–	–	–	–	–	–	–	–	–	–
CCn1c(Sc2ccc(F)cc2)cc(=O)c(C(=O)O)c1-c1ccc(Cl)c(Cl)c1 [Compound 10, 2-(3,4-dichlorophenyl)-1-ethyl-6-(4-fluorophenyl)sulfanyl-4-oxo-pyridine-3-carboxylic acid]	1 (1=0-20%)	1 (1=0-20%)	2 (2=21-40%)	2 (2=21-40%)	1 (1=0-20%)	2 (2=21-40%)	2 (2=21-40%)	1 (1=0-20%)	0	0	–	–	–	–	–
CCn1c(Oc2ccc(Cl)cc2OC)cc(=O)c(C(=O)O)c1-c1ccc(Cl)c(Cl)c1 [Compound 26, 6-(4-chloro-2-methoxy-phenoxy)-2-(3,4-dichlorophenyl)-1-ethyl-4-oxo-pyridine-3-carboxylic acid]	1 (1=0-20%)	1 (1=0-20%)	0	1 (1=0-20%)	1 (1=0-20%)	0	0	1 (1=0-20%)	0	1 (1=0-20%)	–	–	–	–	–
CCn1c(Oc2cc(Cl)cc(OC)c2)cc(=O)c(C(=O)O)c1-c1ccc(Cl)c(Cl)c1 [Compound 25, 6-(3-chloro-5-methoxy-phenoxy)-2-(3,4-dichlorophenyl)-1-ethyl-4-oxo-pyridine-3-carboxylic acid]	1 (1=0-20%)	1 (1=0-20%)	0	1 (1=0-20%)	0	–	–	–	–	–	–	–	–	–	–
CCn1c(Oc2cncc(Cl)c2)cc(=O)c(C(=O)O)c1-c1ccc(Cl)c(Cl)c1 [Compound 13, 6-[(5-chloro-3-pyridyl)oxy]-2-(3,4-dichlorophenyl)-1-ethyl-4-oxo-pyridine-3-carboxylic acid]	4 (4=61-80%)	5 (5=81-100%)	5 (5=81-100%)	4 (4=61-80%)	4 (4=61-80%)	5 (5=81-100%)	4 (4=61-80%)	5 (5=81-100%)	2 (2=21-40%)	4 (4=61-80%)	–	–	–	–	–
CCn1c(Oc2cc(Cl)cc(Cl)c2)cc(=O)c(C(=O)O)c1-c1ccc(Cl)c(Cl)c1 [Compound 16, 6-(3,5-dichlorophenoxy)-2-(3,4-dichlorophenyl)-1-ethyl-4-oxo-pyridine-3-carboxylic acid]	1 (1=0-20%)	2 (2=21-40%)	1 (1=0-20%)	2 (2=21-40%)	1 (1=0-20%)	–	–	–	–	–	–	–	–	–	–
CCn1c(Oc2cccnc2F)cc(=O)c(C(=O)O)c1-c1ccc(Cl)c(Cl)c1 [Compound 34, 2-(3,4-dichlorophenyl)-1-ethyl-6-[(2-fluoro-3-pyridyl)oxy]-4-oxo-pyridine-3-carboxylic acid]	3 (3=41-60%)	3 (3=41-60%)	4 (4=61-80%)	2 (2=21-40%)	3 (3=41-60%)	3 (3=41-60%)	4 (4=61-80%)	3 (3=41-60%)	4 (4=61-80%)	2 (2=21-40%)	–	–	–	–	–
CCn1c(Nc2ccc(C3CC3)cc2)cc(=O)c(C(=O)O)c1-c1ccc(Cl)c(Cl)c1 [Compound 22]	–	–	–	–	–	0	0	1 (1=0-20%)	0	0	–	–	–	–	–
CCn1c(Nc2ccccc2F)cc(=O)c(C(=O)O)c1-c1ccc(Cl)c(Cl)c1 [Compound 1, 2-(3,4-dichlorophenyl)-1-ethyl-6-(2-fluoroanilino)-4-oxo-pyridine-3-carboxylic acid]	–	–	–	–	–	–	–	–	–	–	1 (1=0-20%)	1 (1=0-20%)	0	2 (2=21-40%)	0
CCn1c(Nc2cccc(C)n2)cc(=O)c(C(=O)O)c1-c1ccc(Cl)c(Cl)c1 [Compound 32, 2-(3,4-dichlorophenyl)-1-ethyl-6-[(6-methyl-2-pyridyl)amino]-4-oxo-pyridine-3-carboxylic acid]	3 (3=41-60%)	4 (4=61-80%)	2 (2=21-40%)	1 (1=0-20%)	1 (1=0-20%)	–	–	–	–	–	–	–	–	–	–
CCn1c(Nc2ccc(Cl)cc2F)cc(=O)c(C(=O)O)c1-c1ccc(Cl)c(Cl)c1 [Compound 29, 6-(4-chloro-2-fluoro-anilino)-2-(3,4-dichlorophenyl)-1-ethyl-4-oxo-pyridine-3-carboxylic acid]	2 (2=21-40%)	2 (2=21-40%)	0	3 (3=41-60%)	0	–	–	–	–	–	–	–	–	–	–
CCn1c(Oc2ccc(Cl)cc2Cl)cc(=O)c(C(=O)O)c1-c1ccc(Cl)c(Cl)c1 [Compound 24, 6-(2,4-dichlorophenoxy)-2-(3,4-dichlorophenyl)-1-ethyl-4-oxo-pyridine-3-carboxylic acid]	1 (1=0-20%)	1 (1=0-20%)	0	1 (1=0-20%)	1 (1=0-20%)	–	–	–	–	–	–	–	–	–	–
CCn1c(OC)cc(=O)c(C(=O)O)c1-c1ccc(Cl)c(Cl)c1 [Compound 5, 2-(3,4-dichlorophenyl)-1-ethyl-6-methoxy-4-oxo-pyridine-3-carboxylic acid]	–	–	–	–	–	–	–	–	–	–	0	0	3 (3=41-60%)	3 (3=41-60%)	2 (2=21-40%)
